How the values were obtained:
[1] = target: Hsc70 (Mus musculus, UniProt P63017); test: DRaCALA with [α-32P]ATP; type: binding
[2] = target: Hsc70 C17W (Mus musculus, UniProt P63017, C17W); test: DRaCALA with [α-32P]ATP; type: binding
Hsc70 C17W, sequence (P63017 5-554 C17W): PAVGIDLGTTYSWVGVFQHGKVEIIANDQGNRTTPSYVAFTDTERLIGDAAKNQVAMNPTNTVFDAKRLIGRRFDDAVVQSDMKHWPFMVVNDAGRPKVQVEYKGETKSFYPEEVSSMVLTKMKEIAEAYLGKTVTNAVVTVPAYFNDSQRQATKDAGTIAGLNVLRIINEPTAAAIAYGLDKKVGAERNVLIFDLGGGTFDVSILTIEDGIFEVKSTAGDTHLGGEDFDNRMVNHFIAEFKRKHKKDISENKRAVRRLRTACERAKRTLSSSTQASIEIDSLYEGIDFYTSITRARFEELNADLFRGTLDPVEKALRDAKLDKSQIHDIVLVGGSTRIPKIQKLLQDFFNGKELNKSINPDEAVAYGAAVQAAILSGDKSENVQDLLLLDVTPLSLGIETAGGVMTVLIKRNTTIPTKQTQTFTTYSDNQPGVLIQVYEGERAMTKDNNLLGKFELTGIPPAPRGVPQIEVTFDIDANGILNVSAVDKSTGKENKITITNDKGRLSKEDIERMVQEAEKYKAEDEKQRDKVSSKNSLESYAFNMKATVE

Hsc70, sequence (P63017 5-554): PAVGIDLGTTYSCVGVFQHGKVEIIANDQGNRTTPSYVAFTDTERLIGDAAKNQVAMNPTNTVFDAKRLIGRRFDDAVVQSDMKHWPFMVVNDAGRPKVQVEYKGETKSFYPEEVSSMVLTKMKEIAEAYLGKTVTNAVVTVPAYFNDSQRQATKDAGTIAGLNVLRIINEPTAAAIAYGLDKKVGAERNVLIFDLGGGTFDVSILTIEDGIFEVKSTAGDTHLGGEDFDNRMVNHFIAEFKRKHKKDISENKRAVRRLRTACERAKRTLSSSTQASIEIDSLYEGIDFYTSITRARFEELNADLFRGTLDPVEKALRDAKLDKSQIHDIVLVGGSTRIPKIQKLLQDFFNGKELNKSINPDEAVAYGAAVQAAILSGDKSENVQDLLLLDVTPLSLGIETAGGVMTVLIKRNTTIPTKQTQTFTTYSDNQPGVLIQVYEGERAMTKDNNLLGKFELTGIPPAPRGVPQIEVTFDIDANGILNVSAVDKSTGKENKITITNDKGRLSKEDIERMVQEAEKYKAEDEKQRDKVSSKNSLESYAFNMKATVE

`Nc1ncnc2c1ncn2[C@@H]1O[C@H](COP(=O)(O)OP(=O)(O)OP(=O)(O)O)[C@@H](O)[C@H]1O` [ATP] gave a Kd [1] of 210 ± 40 nM and a Kd [2] of 160 ± 60 nM.

Source: paper PMC5839340 (Biochemistry, 2018)
